# Reference: paper PMC7727669, “Platinum(II) Complexes with Bulky Disubstitute Triazolopyrimidines as Promising Materials for Anticancer Agents” (Materials, 2020)
# Read-outs that look alike come from different tables or passages of the source.
# Tests used:
# [1] = cited from earlier work
# [2] = tested on: normal murine embryonic fibroblast cells (BALB/3T3); assay: In vitro toxicity against normal fibroblasts, SRB test, BALB/3T3; format: cell-based; settings: BALB/3T3 normal cells, 72 h incubation, average of three determinations
# Procedure: Cells were plated in 96-well sterile plates (Sarstedt, Costar) at a density of 10^4 cells per well (in 100 μL of culture medium) and incubated for 24 h. The tested compound was added in final concentrations ranging from 0.1 to 100 μg mL^−1, and the incubation was continued for an additional 72 h. […] IC50 values are expressed as the averages of three independently reproduced experiments. The details of this technique were described by Skehan. The tests of the antiproliferative activity in vitro against both cell lines were performed with the SRB (sulforhodamine B) test using an automated microplate reader (Synergy H4 photometer, BioTek Instruments Inc., Winooski, VT, USA). Moreover, in vitro toxicity against normal murine fibroblast Balb3T3 cells was assessed.
# [3] = tested on: colon cancer cells (LOVO); assay: In vitro antiproliferative activity, SRB test, LoVo; format: cell-based, human; settings: 72 h incubation, average of three determinations
# Procedure: (§1) The in vitro antiproliferative activity against three human tumor cell lines, namely, non-small cell lung carcinoma (A549) (ATCC, Rockville, MD, USA), […] human ductal breast epithelial tumor cells (T47D) (ATCC, Rockville, MD, USA) and colon cancer cells (LOVO) (ATCC, Rockville, MD, USA), and normal murine embryonic fibroblast cells (BALB/3T3) (ATCC, Rockville, MD, USA), was assessed.
# (§2) Cells were plated in 96-well sterile plates (Sarstedt, Costar) at a density of 10^4 cells per well (in 100 μL of culture medium) and incubated for 24 h. The tested compound was added in final concentrations ranging from 0.1 to 100 μg mL^−1, and the incubation was continued for an additional 72 h. The results of in vitro cytotoxic activity are expressed as an IC50 (the dose of compound (in μM) that inhibits proliferation rate of tumor cells by 50%) value compared to the untreated control cells. IC50 values are expressed as the averages of three independently reproduced experiments. The details of this technique were described by Skehan. The tests of the antiproliferative activity in vitro against both cell lines were performed with the SRB (sulforhodamine B) test using an automated microplate reader (Synergy H4 photometer, BioTek Instruments Inc., Winooski, VT, USA). Moreover, in vitro toxicity against normal murine fibroblast Balb3T3 cells was assessed.
# [4] = tested on: non-small cell lung carcinoma (A549); assay: In vitro antiproliferative activity, SRB test, A549; format: cell-based, human; settings: A549, 72 h incubation, average of three determinations
# Procedure: as §1, §2
# [5] = tested on: cisplatin-resistant human ductal breast epithelial tumor cells (T47D); assay: In vitro antiproliferative activity, SRB test, T47D; format: cell-based; settings: 72 h incubation, average of three determinations
# Procedure: as §1, §2
# [6] = tested on: human ovarian carcinoma cell lines resistant to cisplatin (A2780R); parameters: method as in PMID 19783310; settings: read-out: in vitro activity against A2780R; cited from earlier work
# [7] = Partition coefficient (logP), shake-flask method; format: physicochemical; settings: n-octanol / aqueous 0.9% NaCl, UV-Vis
# Procedure: The lipophilicity (logP) of the platinum(II) compounds was determined using the shake–flask method. At first, aqueous (0.9% w/v) sodium chloride and organic (n–octanol) phases were saturated for 1 week. […] An equal volume of immiscible solvent was added, and the solutions were mixed mechanically in plastic tubes for 30 min. Samples were centrifuged (6000 rpm, 15 min). After separation, the phases were analyzed by UV–Vis spectroscopy to determine the amount of the compound in each phase. The absorption values before and after shaking were compared, and based on the Lambert–Beer law, the partition coefficient in both phases for each compound was calculated to determine the logP values. The procedures were repeated threefold.
compound,measurement,setting,value
CC(C)(C)c1cc(C(C)(C)C)n2ncnc2n1.CC(C)(C)c1cc(C(C)(C)C)n2ncnc2n1.O=C([O-])CC(=O)[O-].[Pt+2] [[Pt(mal)(dbtp)2]],logP,"[1]; symmetrical malonato complexes, previous work",2.07
N.N.O=C([O-])C1(C(=O)[O-])CCC1.[Pt+2] [carboplatin],log P,[1]; literature data for platinum(II) drugs,−2.30
"N.N.[Cl][Pt][Cl] [cisplatin, reference compound]",IC50,[2],3.2 ± 1.5 µM
same,IC50,[3],0.84 ± 0.3 µM
same,IC50,[4],9 ± 1.1 µM
same,IC50,[5],3.11 ± 1.2 µM
same,IC50,[6],20.4 µM
"(Dimethylsulfoxide-κS)(5,7-ditertbutyl-1,2,4-triazolo[1,5-a]pyrimidine-κN(3))(cyclobutane-1,1- dicarboxylato-κ^2O,O′))platinum(II) monoaqua hydrate [Complex 3]",IC50,[2],10.2 ± 6.2 µM
same,IC50,[3],20 ± 2.8 µM
same,IC50,[4],5 ± 0.9 µM
same,IC50,[5],6.6 ± 4.8 µM
same,log P,[7],−1.69
"(Dimethylsulfoxide-κS)(5,7-ditertbutyl-1,2,4-triazolo[1,5-a]pyrimidine-κN(3))(malonato-κ^2O,O′) platinum(II) [Complex 1]",IC50,[2],30.2 ± 22.6 µM
same,IC50,[3],27.9 ± 1 µM
same,IC50,[4],16.3 ± 9.9 µM
same,IC50,[5],17.1 ± 10.5 µM
same,log P,[7],−1.58
"(Dimethylsulfoxide-κS)(7-isobutyl-5-methyl-1,2,4-triazolo[1,5-a]pyrimidine-κN(3))(cyclo- butane-1,1-dicarboxylato-κ^2O,O′))platinum(II) monoaqua hydrate [Complex 4]",IC50,[2],73.4 ± 29.7 µM
same,IC50,[3],41.2 ± 1.6 µM
same,IC50,[4],57.3 ± 11.3 µM
same,IC50,[5],21.9 ± 17.2 µM
same,log P,[7],−1.23
"(Dimethylsulfoxide-κS)(7-isobutyl-5-methyl-1,2,4-triazolo[1,5-a]pyrimidine-κN(3))(malonato- κ^2O,O′)platinum(II) monoaqua hydrate [Complex 2]",IC50,[2],46 ± 40.7 µM
same,IC50,[3],38.4 ± 1.8 µM
same,IC50,[4],57.8 ± 13.5 µM
same,IC50,[5],42.6 ± 19 µM
same,log P,[7],−0.65
